Active and inactive are the calls of the source.
Tests used:
[1] = molecular target: T1, Endoribonuclease toxin MazF (Escherichia coli K-12, UniProt P0AE70); assay: MazEF toxin-antitoxin RNase activation – biochemical, fluorescence, single-stranded RNA substrate, SAR follow-up (AID 588603); assay type: functional
T1 sequence (P0AE70 whole entry): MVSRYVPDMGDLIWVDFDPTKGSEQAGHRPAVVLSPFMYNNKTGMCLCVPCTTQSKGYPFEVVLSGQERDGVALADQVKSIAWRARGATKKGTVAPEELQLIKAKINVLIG

MEF = assay: SAR analysis of small molecule cytotoxicity of MazEF TA System activators in embryonic fibroblast (MEF) cells. [Related pubchem assays (depositor defined):AID504720, AID504743]; assay type: functional; details: Mus musculus
[2] = molecular target: T1, Endoribonuclease toxin MazF; assay: substrate-only fluorescence increase artefacts – biochemical, single-stranded RNase substrate, counter-screen for MazEF activator project, dose response (AID 588502); assay type: functional
[3] = molecular target: T1, Endoribonuclease toxin MazF; assay: SAR analysis of small molecule activators of the MazEF TA System via a fluorescence-based single-stranded RNase assay counterscreen. [Related pubchem assays (depositor defined):AID504720, AID504743]; assay type: functional
[4] = molecular target: T1, Endoribonuclease toxin MazF; assay: activation of MazEF endoribonuclease cleavage – biochemical, fluorescence, single-stranded RNA substrate, uHTS hits, dose response (AID 588481); assay type: functional
Phospholipase D1 = Phospholipase D1 (Homo sapiens, UniProt Q13393); assay: cellular phospholipase D1 inhibition IC50 – cell-based, dose response (AID 602151); assay type: functional;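 further: cellular PLD1 assay in Calu-1 cells stimulated with PMA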
Phospholipase D2 = Phospholipase D2 (Homo sapiens, UniProt O14939); assay: cellular phospholipase D2 inhibition IC50 – cell-based, dose response (AID 602147); assay type: functional;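 further: cellular assay in HEK293 cells overexpressing GFP-tagged PLD2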
Beta-galactosidase = Beta-galactosidase (Escherichia coli, UniProt Q8VNN2); assay: PubChem AID 485352; assay type: functional
[5] = microbe, parasite or virus in culture; assay type: functional; details: Mycobacterium tuberculosis
[6] = molecular target: Type-1 angiotensin II receptor (Homo sapiens, UniProt P30556); assay: antagonism of angiotensin II type 1 receptor – cell-based, uHTS hits, selectivity assay for APJ receptor antagonist project, dose response (AID 463214); assay type: functional;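 further: antagonist potency against angiotensin II stimulated AT1 response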
CHO-K1 = assay: (§1) Counterscreen for antagonists of the orexin 1 receptor (OX1R; HCRTR1): Homogeneous time resolved fluorescence (HTRF)-based cell-based dose response assay to identify antagonists of the parental CHO-K1 cell line. [Related pubchem assays (depositor defined):AID434989, AID435008, AID463079, AID485270, AID492963, AID492964, AID492965, AID493232, AID504699, AID504701]; assay type: functional; details: Cricetulus griseus
[7] = molecular target: T2, Orexin/Hypocretin receptor type 1 (Homo sapiens, UniProt O43613); assay: Homogeneous Time Resolved Fluorescence (HTRF)-based cell-based high throughput dose response assay for antagonists of the orexin 1 receptor (OX1R; HCRTR1). [Related pubchem assays (depositor defined):AID434989, AID435008, AID463079, AID485270, AID492963, AID492964, AID492965, AID493232, AID504717, AID504718]; assay type: functional
T2 sequence (O43613 whole entry): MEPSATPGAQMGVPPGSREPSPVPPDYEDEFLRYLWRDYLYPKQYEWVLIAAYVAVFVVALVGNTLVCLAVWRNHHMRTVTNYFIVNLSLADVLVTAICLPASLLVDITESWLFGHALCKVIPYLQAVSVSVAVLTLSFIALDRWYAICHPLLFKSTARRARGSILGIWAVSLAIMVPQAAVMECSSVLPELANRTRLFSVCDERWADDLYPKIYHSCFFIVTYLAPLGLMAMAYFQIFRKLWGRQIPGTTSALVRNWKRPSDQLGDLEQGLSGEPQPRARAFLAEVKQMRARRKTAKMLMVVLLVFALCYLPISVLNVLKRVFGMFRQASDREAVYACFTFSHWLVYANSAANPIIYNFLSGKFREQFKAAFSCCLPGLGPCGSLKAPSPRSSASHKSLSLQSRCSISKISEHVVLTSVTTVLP

[8] = molecular target: T2, Orexin/Hypocretin receptor type 1; assay: Fluorescence-based cell-based high throughput dose response assay for antagonists of the orexin 1 receptor (OX1R; HCRTR1). [Related pubchem assays (depositor defined):AID434989, AID435008, AID463079, AID485270, AID492963, AID492964, AID492965, AID493232, AID504717, AID504718]; assay type: functional
[9] = as §1, with “Fluorescence-based” for “Homogeneous time resolved fluorescence (HTRF)-based”, “cell-based high throughput” for “cell-based”, “CHO” for “CHO-K1”; assay type: functional
Orexin receptor type 2 [10] = molecular target: T3, Orexin receptor type 2 (Homo sapiens, UniProt O43614); assay: Counterscreen assay for antagonists of the orexin 1 receptor (OX1R; HCRTR1): Fluorescence-based cell-based dose response assay for antagonists of the orexin 2 receptor (OX2R; HCRTR2), run by assay provider.; assay type: functional
T3 sequence (O43614 whole entry): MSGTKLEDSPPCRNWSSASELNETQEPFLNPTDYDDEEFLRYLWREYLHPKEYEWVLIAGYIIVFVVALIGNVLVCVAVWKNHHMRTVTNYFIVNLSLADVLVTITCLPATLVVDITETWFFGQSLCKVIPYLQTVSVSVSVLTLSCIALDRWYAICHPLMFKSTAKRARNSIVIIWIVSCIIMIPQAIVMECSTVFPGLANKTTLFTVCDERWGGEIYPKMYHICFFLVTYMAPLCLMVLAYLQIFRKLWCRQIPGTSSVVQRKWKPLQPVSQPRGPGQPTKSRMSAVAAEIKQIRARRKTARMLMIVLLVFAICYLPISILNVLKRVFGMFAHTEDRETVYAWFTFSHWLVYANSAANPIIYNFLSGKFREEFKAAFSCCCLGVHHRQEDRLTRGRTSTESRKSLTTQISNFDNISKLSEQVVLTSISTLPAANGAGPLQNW

Orexin receptor type 2 [11] = molecular target: T3, Orexin receptor type 2; assay: Counterscreen assay for antagonists of the orexin 1 receptor (OX1R; HCRTR1): Homogeneous Time Resolved Fluorescence (HTRF)-based cell-based dose response assay for antagonists of the orexin 2 receptor (OX2R; HCRTR2), run by assay provider.; assay type: functional
BJ [12] = assay: BJ-TERT-LT-ST fibroblast viability loss – cell-based, RAS-independent, luminescence, dose response (AID 1935); assay type: functional; details: Homo sapiens;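 further: BJ fibroblasts immortalized with TERT plus LT and ST oncogenes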
BJ [13] = assay: cells; assay type: functional, cell-based; details: Homo sapiens
[14] = DRD fibroblast viability loss – cell-based, non-viral oncogenic, luminescence, dose response (AID 1934); assay type: functional; details: Homo sapiens
BJ [15] = assay: BJ-TERT fibroblast viability loss – cell-based, RAS-independent, luminescence, dose response (AID 1933); assay type: functional; details: Homo sapiens
BJ [16] = assay: growth inhibition of engineered Ras-driven BJ cells – cell-based, alamar blue fluorescence, cherrypicked samples, dose response (AID 2631); assay type: functional; details: Homo sapiens;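 further: confirmatory dose-response assay in RAS-dependent BJ fibroblasts engineered with TERT, LT and ST, with cytotoxicity read by fluorescence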
Paired box protein Pax-8 = Paired box protein Pax-8 (Homo sapiens, UniProt Q06710); assay: PAX8 transcriptional activity inhibition in RMG-I – RMG-I cells, luciferase, cherry-pick, dose response (AID 687027); assay type: functional, cell-based;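 further: luciferase reporter driven by Pax8 target thyroperoxidase promoter measured by SteadyGlo luminescence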
[17] = alpha-synuclein stem-loop translation blockers – luminescence, H4 neuroglioblastoma cells, dose confirmation, confirmation (AID 2454); assay type: functional, cell-based;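 further: H4 neuroglioblastoma cells carrying an alpha-synuclein 5'UTR luciferase reporter; potency for inhibition of the luciferase signal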
[18] = alpha-synuclein stem-loop luciferase translation blockers – H4 neuroglioma cells, luminescence, confirmation (AID 1988); assay type: functional, cell-based
[19] = general cell-killing toxicity readout – plate reader, dry powder samples, cytotoxicity control for PAX8 inhibitor project, dose response (AID 743021); assay type: functional, cell-based
[20] = luciferase reporter signal reduction – luminescence, H4-C neuroglioblastoma cells, dose response (AID 2458); assay type: functional, cell-based;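 further: H4 neuroglioblastoma cells stably carrying a luciferase reporter gene fusion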
[21] = luciferase reporter signal suppression in cells – H4 neuroglioma cells, luminescence, dose response (AID 1990); assay type: functional, cell-based
[22] = Luminescence Cell-Based Dose Response HTS to Identify Inhibitors of 5'UTR Stem-Loop Driven Prion Protein mRNA Translation in H4 Neuroglioblastoma Cells. [Related pubchem assays: 1827 (Project Summary), 1813 (Primary HTS)]; assay type: functional
cells = assay type: functional, cell-based

Phospholipase D2, sequence (O14939 whole entry): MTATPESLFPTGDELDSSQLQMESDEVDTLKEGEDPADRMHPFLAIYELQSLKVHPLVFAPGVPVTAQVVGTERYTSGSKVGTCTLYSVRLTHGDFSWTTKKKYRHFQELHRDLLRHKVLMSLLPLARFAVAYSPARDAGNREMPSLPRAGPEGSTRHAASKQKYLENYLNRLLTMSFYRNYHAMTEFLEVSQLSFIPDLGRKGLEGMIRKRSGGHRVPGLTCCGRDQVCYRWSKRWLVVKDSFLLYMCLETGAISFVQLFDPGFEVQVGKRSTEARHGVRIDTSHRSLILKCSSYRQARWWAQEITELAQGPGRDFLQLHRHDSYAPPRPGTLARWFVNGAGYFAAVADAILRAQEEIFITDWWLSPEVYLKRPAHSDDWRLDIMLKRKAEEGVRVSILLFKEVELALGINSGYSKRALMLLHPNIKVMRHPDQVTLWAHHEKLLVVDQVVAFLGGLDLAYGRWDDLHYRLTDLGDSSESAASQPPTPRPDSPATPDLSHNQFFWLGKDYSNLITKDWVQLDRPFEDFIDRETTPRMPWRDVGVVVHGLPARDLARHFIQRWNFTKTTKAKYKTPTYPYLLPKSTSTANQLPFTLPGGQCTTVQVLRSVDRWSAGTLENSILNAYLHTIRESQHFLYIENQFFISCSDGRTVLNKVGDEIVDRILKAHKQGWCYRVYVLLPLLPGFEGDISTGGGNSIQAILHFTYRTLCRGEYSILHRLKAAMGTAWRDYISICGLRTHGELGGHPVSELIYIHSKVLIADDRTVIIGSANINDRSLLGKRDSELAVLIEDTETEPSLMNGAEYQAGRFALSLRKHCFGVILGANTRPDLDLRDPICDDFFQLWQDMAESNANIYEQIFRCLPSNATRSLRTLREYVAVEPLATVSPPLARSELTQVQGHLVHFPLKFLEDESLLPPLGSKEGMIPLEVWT
Beta-galactosidase, sequence (Q8VNN2 whole entry): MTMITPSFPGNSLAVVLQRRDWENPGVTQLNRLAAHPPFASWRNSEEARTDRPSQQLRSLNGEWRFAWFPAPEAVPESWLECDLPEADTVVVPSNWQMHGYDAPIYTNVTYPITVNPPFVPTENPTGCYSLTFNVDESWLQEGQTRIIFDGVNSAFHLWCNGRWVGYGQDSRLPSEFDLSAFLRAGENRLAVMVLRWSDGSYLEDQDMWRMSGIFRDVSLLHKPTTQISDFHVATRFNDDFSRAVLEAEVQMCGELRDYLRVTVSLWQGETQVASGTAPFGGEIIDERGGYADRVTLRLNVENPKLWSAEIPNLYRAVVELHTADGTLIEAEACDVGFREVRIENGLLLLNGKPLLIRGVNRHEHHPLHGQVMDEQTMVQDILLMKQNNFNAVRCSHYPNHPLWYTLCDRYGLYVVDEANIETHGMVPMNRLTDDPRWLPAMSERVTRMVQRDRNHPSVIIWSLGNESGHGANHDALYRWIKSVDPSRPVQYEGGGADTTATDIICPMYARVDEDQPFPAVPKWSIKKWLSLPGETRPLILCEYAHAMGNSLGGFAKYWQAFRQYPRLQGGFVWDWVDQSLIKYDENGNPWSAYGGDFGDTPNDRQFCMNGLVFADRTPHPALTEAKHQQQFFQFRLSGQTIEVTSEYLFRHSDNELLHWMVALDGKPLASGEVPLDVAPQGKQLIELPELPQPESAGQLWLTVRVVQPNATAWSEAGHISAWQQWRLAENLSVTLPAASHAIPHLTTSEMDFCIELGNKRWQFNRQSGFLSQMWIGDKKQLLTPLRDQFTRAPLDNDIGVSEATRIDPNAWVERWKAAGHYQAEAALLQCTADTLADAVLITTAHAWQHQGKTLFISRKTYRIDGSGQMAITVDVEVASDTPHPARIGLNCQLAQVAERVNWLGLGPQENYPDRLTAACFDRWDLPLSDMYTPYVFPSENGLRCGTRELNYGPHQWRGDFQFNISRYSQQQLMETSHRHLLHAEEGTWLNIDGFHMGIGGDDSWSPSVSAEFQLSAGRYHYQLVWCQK
Type-1 angiotensin II receptor, sequence (P30556 whole entry): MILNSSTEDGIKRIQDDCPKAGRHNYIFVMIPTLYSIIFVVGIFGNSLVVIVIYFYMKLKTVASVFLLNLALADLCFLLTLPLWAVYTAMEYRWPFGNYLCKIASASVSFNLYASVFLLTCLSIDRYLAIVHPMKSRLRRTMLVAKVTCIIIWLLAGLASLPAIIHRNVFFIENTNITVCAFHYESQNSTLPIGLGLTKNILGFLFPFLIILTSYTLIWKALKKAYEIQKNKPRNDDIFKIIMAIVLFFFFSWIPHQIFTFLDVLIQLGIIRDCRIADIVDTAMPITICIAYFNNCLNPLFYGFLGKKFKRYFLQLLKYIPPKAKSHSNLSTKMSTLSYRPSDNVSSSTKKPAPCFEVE
Phospholipase D1, sequence (Q13393 whole entry): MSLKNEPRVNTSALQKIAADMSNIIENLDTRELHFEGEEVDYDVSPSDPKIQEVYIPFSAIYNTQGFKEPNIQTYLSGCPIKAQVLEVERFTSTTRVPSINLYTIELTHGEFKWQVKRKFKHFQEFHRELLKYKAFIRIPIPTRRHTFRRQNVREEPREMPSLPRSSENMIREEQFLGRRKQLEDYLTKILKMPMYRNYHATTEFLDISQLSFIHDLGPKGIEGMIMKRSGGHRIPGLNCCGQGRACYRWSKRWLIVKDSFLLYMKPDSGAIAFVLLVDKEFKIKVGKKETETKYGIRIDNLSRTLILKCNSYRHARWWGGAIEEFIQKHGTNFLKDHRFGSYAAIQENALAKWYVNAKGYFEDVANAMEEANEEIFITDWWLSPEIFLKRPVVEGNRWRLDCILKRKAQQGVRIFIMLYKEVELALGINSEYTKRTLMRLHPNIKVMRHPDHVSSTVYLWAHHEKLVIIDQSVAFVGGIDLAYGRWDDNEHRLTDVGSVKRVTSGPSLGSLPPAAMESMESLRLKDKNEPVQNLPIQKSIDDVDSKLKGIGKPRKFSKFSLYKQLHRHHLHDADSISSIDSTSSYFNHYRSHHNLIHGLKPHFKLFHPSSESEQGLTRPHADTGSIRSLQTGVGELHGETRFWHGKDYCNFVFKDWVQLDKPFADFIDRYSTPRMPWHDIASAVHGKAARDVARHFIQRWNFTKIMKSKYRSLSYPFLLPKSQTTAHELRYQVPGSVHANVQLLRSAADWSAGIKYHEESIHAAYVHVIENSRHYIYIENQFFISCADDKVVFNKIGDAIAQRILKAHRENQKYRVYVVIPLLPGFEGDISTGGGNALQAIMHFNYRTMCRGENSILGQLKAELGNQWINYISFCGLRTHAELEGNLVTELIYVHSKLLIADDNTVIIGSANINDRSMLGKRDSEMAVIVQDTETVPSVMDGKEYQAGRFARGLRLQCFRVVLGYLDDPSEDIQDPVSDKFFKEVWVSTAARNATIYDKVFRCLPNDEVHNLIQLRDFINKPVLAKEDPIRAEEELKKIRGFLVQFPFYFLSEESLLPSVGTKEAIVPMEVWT
Paired box protein Pax-8, sequence (Q06710 whole entry): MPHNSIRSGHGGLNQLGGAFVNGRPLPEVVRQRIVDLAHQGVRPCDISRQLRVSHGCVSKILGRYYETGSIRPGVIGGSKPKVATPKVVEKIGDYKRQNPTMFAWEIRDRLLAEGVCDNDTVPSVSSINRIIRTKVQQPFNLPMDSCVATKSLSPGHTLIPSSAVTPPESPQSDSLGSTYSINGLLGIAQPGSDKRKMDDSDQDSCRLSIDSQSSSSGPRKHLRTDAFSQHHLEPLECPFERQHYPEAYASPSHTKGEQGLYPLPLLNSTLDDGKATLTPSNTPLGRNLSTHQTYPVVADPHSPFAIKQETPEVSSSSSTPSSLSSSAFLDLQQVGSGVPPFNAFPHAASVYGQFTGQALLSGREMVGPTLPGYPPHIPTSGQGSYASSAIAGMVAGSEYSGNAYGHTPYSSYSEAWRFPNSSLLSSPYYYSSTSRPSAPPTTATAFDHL

In the case of `Cc1c(C(=O)Oc2cc(N)n(S(C)(=O)=O)n2)cccc1[N+](=O)[O-]`, the EC50 [1] is reported as 6.63 µM (active), the CC50 (MEF) is reported as > 99 µM (inactive) and the EC50 [2] is reported as > 99 µM (inactive). For the same compound, the EC50 [3] was > 99 µM (inactive) and the EC50 [4] was 5.59 µM (active).
For `Cc1ccc(C(=O)N[C@@H](C)CN2CCC(n3c(=O)[nH]c4cc(Br)ccc43)CC2)cc1`, the IC50 (Phospholipase D1) was 0.007 µM (active) and the IC50 (Phospholipase D2) was 2.8 µM (active).
With `C[C@@H](CN1CC=C(n2c(=O)[nH]c3ccccc32)CC1)NC(=O)[C@H]1C[C@@H]1c1ccccc1` the IC50 (Phospholipase D1) was 0.48 µM (active) and the IC50 (Phospholipase D2) was 20 µM (active).
In the case of `CC1CC2=C(CC1/C=N/NC(N)=S)C(C)(C)CCC2` (configuration not stated), the EC50 (Beta-galactosidase) is reported as > 40 µM (inactive), the CC50 [5] is reported as 20.9 µM (active) and the IC50 [6] is reported as 22.6 µM (not active).
For `CSc1cccc(NC(=O)C2CCCN(S(=O)(=O)c3cccs3)C2)c1` (configuration not stated), the IC50 (CHO-K1) was > 66.2 µM (inactive), the IC50 [7] was 0.546 µM (active) and the IC50 [8] was 6.4 µM (active). For the same compound, the IC50 [9] was > 49.7 µM (inactive), the IC50 (Orexin receptor type 2 [10]) was 5.3 µM (active) and the IC50 (Orexin receptor type 2 [11]) was > 50 µM (inactive).
With `CC(=O)c1ccc(NC(=O)N2CCc3ccccc3C2)cc1` the EC50 (BJ [12]) was > 150 µM (not active), the EC50 (BJ [13]) was 10.5 µM (active) and the EC50 [14] was > 150 µM (not active). For the same compound, the EC50 (BJ [15]) was > 150 µM (not active) and the EC50 (BJ [16]) was 6.04 µM (active).
For `Cn1c2ccccc2c(=O)c2cc(C#Cc3cccc(N)c3)ccc21`, the IC50 (CHO-K1) was > 66.3 µM (inactive), the IC50 [7] was 1.5 µM (active) and the IC50 [8] was 1.69 µM (active). For the same compound, the IC50 [9] was > 49.8 µM (inactive), the IC50 (Orexin receptor type 2 [10]) was > 88.8 µM (inactive) and the IC50 (Orexin receptor type 2 [11]) was 0.07 µM (active).
For `CCOc1ccc(C2=Nn3c(nnc3-c3ccccc3OC)SC2)cc1`, the EC50 (BJ [13]) was < 0.12 µM (active), the AC50 (Paired box protein Pax-8) was 0.317 µM (active) and the EC50 [17] was 0.04 µM (active). The EC50 [18] was < 0.1 µM (active), the EC50 [14] was < 0.12 µM (active) and the AC50 [19] was 63 µM (active). The EC50 [20] was 0.034 µM (active), the EC50 [21] was < 0.1 µM (active) and the EC50 [22] was < 0.1 µM (active). For the same compound, the EC50 (cells) was 0.046 µM (active) and the EC50 (BJ [16]) was < 0.104 µM (active).
With `O=C1NC[C@H](c2ccccc2)OC(=O)[C@@H](Cc2ccc(F)cc2)CC/C=C/C[C@@H]1CC(=O)N(CCO)Cc1ccccc1` the EC50 (Beta-galactosidase) was 19.5 µM (active) and the IC50 [6] was 33.7 µM (not active).
